Molecules are shown by their SMILES.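 Where inhibition never reached the appropriate level, the endpoint shown equals the highest concentration tested. Otherwise, values were interpolated linearly from a five-concentration, 48-hour dose response in 96-well plates. TGI is the concentration that stops growth completely.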

Experimental findings from PubChem BioAssay (NCI) are described below.

Among the test systems are PC-3 prostate; SN12C renal; OVCAR-4 ovarian; UACC-257 melanoma; OVCAR-8 ovarian; SW-620 colon; HCT-116 colon; SK-MEL-2 melanoma; RXF 393 renal; DU-145 prostate.
What all share (assay): NCI anticancer screen, dose series, 48 h

For `CCOC(CNCCC(=O)OC)OCC`, the TGI in the test with PC-3 prostate, in the test with SN12C renal, with OVCAR-4 ovarian, with UACC-257 melanoma, with OVCAR-8 ovarian and in the test with SW-620 colon was > 10 µM each time. Further, the TGI in the test on HCT-116 colon, with SK-MEL-2 melanoma, with RXF 393 renal and in the test with DU-145 prostate was > 10 µM each time.

In the case of `O=c1[nH]cnc2c1ncn2[C@@H]1C[C@@H]1CO`, the TGI in the test with PC-3 prostate, in the test with SN12C renal, with OVCAR-4 ovarian, with UACC-257 melanoma, in the test on OVCAR-8 ovarian and with SW-620 colon was > 100 µM in each case. In addition, the TGI in the test on HCT-116 colon, with SK-MEL-2 melanoma, in the test on RXF 393 renal and in the test with DU-145 prostate was > 100 µM in each case.

With `Nc1nc(Cl)cc(NCC2(CO)CCC(CCc3ccccc3)C2)n1` (stereo not given), the TGI with PC-3 prostate turned out to be 43.4 µM; in the test on SN12C renal, 31.1 µM; with OVCAR-4 ovarian, 31.2 µM; in the test with UACC-257 melanoma, 22.6 µM; in the test with OVCAR-8 ovarian, 44 µM; in the test on SW-620 colon, 36 µM. In addition, the TGI in the test on HCT-116 colon was 21.9 µM; in the test on SK-MEL-2 melanoma, 34.5 µM; in the test with RXF 393 renal it was 29.9 µM; with DU-145 prostate, 30.2 µM.

As for `COc1ccc(-c2c3c([nH]c(=S)c2C#N)CC(C)(C)CC3=O)cc1`, the TGI in the test with PC-3 prostate, in the test with SN12C renal, in the test with OVCAR-4 ovarian, with UACC-257 melanoma, in the test with OVCAR-8 ovarian and in the test with SW-620 colon was > 100 µM each time. The TGI in the test on HCT-116 colon, in the test with SK-MEL-2 melanoma, with RXF 393 renal and in the test with DU-145 prostate was > 100 µM throughout.

Consider `O=c1ccn(C2OC(CO)C(P(=O)(O)O)C2O)c(=O)[nH]1` (stereo not given), for which the TGI with PC-3 prostate, with SN12C renal, in the test with OVCAR-4 ovarian, in the test with UACC-257 melanoma, in the test with OVCAR-8 ovarian and in the test with SW-620 colon was > 100 µM throughout. Moreover, the TGI in the test with HCT-116 colon, with SK-MEL-2 melanoma, in the test with RXF 393 renal and in the test with DU-145 prostate was > 100 µM throughout.
